Experimental data reported in ChEMBL document CHEMBL2440076, “New triarylpyrazoles as broad-spectrum anticancer agents: design, synthesis, and biological evaluation” (Eur J Med Chem, 2013).

Tests used:
Type in all cases: functional
SNB-19 = assay: Growth inhibition of human SNB19 cells assessed as cell growth at 10^-7 M after 48 hrs by sulforhodamine B assay; details: SNB-19, 48 h, read-out: Activity
SW-620 = assay: Growth inhibition of human SW620 cells assessed as cell growth at 10^-7 M after 48 hrs by sulforhodamine B assay; details: SW-620, 48 h, read-out: Activity
[1] = Growth inhibition of human HCC2998 cells assessed as cell growth at 10^-7 M after 48 hrs by sulforhodamine B assay; details: HCC 2998, 48 h, read-out: Activity
MOLT-4 = assay: Growth inhibition of human MOLT4 cells assessed as cell growth at 10^-7 M after 48 hrs by sulforhodamine B assay; details: MOLT-4, 48 h, read-out: Activity
[2] = Growth inhibition of human Hs 578T cells assessed as cell growth at 10^-4 M after 48 hrs by sulforhodamine B assay; details: read-out: Activity
MDA-MB-231 = assay: Growth inhibition of human MDA-MB-231 cells assessed as cell growth at 10^-4 M after 48 hrs by sulforhodamine B assay; details: MDA-MB-231, 48 h, read-out: Activity
SK-MEL-5 = assay: Growth inhibition of human SK-MEL-5 cells assessed as cell growth at 10^-4 M after 48 hrs by sulforhodamine B assay; details: SK-MEL-5, 48 h, read-out: Activity
M14 = assay: Growth inhibition of human M14 cells assessed as cell growth at 10^-4 M after 48 hrs by sulforhodamine B assay; details: M14, 48 h, read-out: Activity
U-251 = assay: Growth inhibition of human U251 cells assessed as cell growth at 10^-4 M after 48 hrs by sulforhodamine B assay; details: U-251, 48 h, read-out: Activity
SF-539 = assay: Growth inhibition of human SF539 cells assessed as cell growth at 10^-4 M after 48 hrs by sulforhodamine B assay; details: SF-539, 48 h, read-out: Activity
SF-268 = assay: Growth inhibition of human SF268 cells assessed as cell growth at 10^-4 M after 48 hrs by sulforhodamine B assay; details: SF-268, 48 h, read-out: Activity
HCT-116 = assay: Growth inhibition of human HCT116 cells assessed as cell growth at 10^-4 M after 48 hrs by sulforhodamine B assay; details: HCT-116, 48 h, read-out: Activity
NCI-H522 = assay: Growth inhibition of human NCI-H522 cells assessed as cell growth at 10^-4 M after 48 hrs by sulforhodamine B assay; details: NCI-H522, 48 h, read-out: Activity
UO-31 = assay: Growth inhibition of human UO31 cells assessed as cell growth at 10^-8 M after 48 hrs by sulforhodamine B assay; details: UO-31, 48 h, read-out: Activity
[3] = Growth inhibition of human NCI-ADR-RES cells assessed as cell growth at 10^-8 M after 48 hrs by sulforhodamine B assay; details: read-out: Activity
SNB-75 = assay: Growth inhibition of human SNB75 cells assessed as cell growth at 10^-8 M after 48 hrs by sulforhodamine B assay; details: SNB-75, 48 h, read-out: Activity
KM12 [4] = assay: Growth inhibition of human KM12 cells assessed as cell growth at 10^-8 M after 48 hrs by sulforhodamine B assay; details: KM12, 48 h, read-out: Activity
HT-29 = assay: Growth inhibition of human HT-29 cells assessed as cell growth at 10^-8 M after 48 hrs by sulforhodamine B assay; details: HT-29, 48 h, read-out: Activity
HOP-92 = assay: Growth inhibition of human HOP92 cells assessed as cell growth at 10^-8 M after 48 hrs by sulforhodamine B assay; details: HOP-92, 48 h, read-out: Activity
K562 = assay: Growth inhibition of human K562 cells assessed as cell growth at 10^-8 M after 48 hrs by sulforhodamine B assay; details: K562, 48 h, read-out: Activity
CCRF-CEM [5] = assay: Growth inhibition of human CCRF-CEM cells assessed as cell growth at 10^-4 M after 48 hrs by sulforhodamine B assay; details: read-out: Activity
786-0 = assay: Growth inhibition of human 786-0 cells assessed as cell growth at 10^-5 M after 48 hrs by sulforhodamine B assay; details: 786-0, 48 h, read-out: Activity
OVCAR-5 = assay: Growth inhibition of human OVCAR5 cells assessed as cell growth at 10^-5 M after 48 hrs by sulforhodamine B assay; details: OVCAR-5, 48 h, read-out: Activity
RPMI-8226 = assay: Growth inhibition of human RPMI8226 cells assessed as cell growth at 10^-5 M after 48 hrs by sulforhodamine B assay; details: RPMI-8226, 48 h, read-out: Activity
BT-549 = assay: Growth inhibition of human BT549 cells assessed as cell growth at 10^-6 M after 48 hrs by sulforhodamine B assay; details: BT-549, 48 h, read-out: Activity
[6] = Growth inhibition of human Hs 578T cells assessed as cell growth at 10^-6 M after 48 hrs by sulforhodamine B assay; details: read-out: Activity
ACHN = assay: Growth inhibition of human ACHN cells assessed as cell growth at 10^-6 M after 48 hrs by sulforhodamine B assay; details: read-out: Activity
SK-OV-3 = assay: Growth inhibition of human SKOV3 cells assessed as cell growth at 10^-6 M after 48 hrs by sulforhodamine B assay; details: SK-OV-3, 48 h, read-out: Activity
OVCAR-8 = assay: Growth inhibition of human OVCAR8 cells assessed as cell growth at 10^-6 M after 48 hrs by sulforhodamine B assay; details: OVCAR-8, 48 h, read-out: Activity
KM12 [7] = assay: Growth inhibition of human KM12 cells assessed as cell growth at 10^-6 M after 48 hrs by sulforhodamine B assay; details: KM12, 48 h, read-out: Activity
HL-60(TB) = assay: Growth inhibition of human HL-60(TB) cells assessed as cell growth at 10^-6 M after 48 hrs by sulforhodamine B assay; details: HL-60, 48 h, read-out: Activity
MDA-MB-468 = assay: Growth inhibition of human MDA-MB-468 cells assessed as cell growth at 10^-7 M after 48 hrs by sulforhodamine B assay; details: MDA-MB-468, 48 h, read-out: Activity
CCRF-CEM [8] = assay: Growth inhibition of human CCRF-CEM cells assessed as cell growth at 10^-6 M after 48 hrs by sulforhodamine B assay; details: read-out: Activity
T47D = assay: Growth inhibition of human T47D cells assessed as cell growth at 10^-7 M after 48 hrs by sulforhodamine B assay; details: read-out: Activity
DU-145 = assay: Growth inhibition of human DU145 cells assessed as cell growth at 10^-7 M after 48 hrs by sulforhodamine B assay; details: DU-145, 48 h, read-out: Activity
[9] = Growth inhibition of human NCI-ADR-RES cells assessed as cell growth at 10^-7 M after 48 hrs by sulforhodamine B assay; details: read-out: Activity

COc1cc(-c2nn(-c3cccc(NC(=O)c4ccccc4)c3)cc2-c2ccncc2)ccc1Cl
growth at 0.1 µM (SNB-19): 97%
growth at 0.1 µM (SW-620): 92%
growth at 0.1 µM [1]: 100%
growth at 0.1 µM (MOLT-4): 99%
growth at 100 µM [2]: 32%
growth at 100 µM (MDA-MB-231): -42%
growth at 100 µM (SK-MEL-5): -85%
growth at 100 µM (M14): -41%
growth at 100 µM (U-251): -18%
growth at 100 µM (SF-539): -22%
growth at 100 µM (SF-268): 14%
growth at 100 µM (HCT-116): 9%
growth at 100 µM (NCI-H522): 6%
growth at 0.01 µM (UO-31): 92%
growth at 0.01 µM [3]: 98%
growth at 0.01 µM (SNB-75): 89%
growth at 0.01 µM (KM12 [4]): 101%
growth at 0.01 µM (HT-29): 98%
growth at 0.01 µM (HOP-92): 93%
growth at 0.01 µM (K562): 102%
growth at 100 µM (CCRF-CEM [5]): 16%
growth at 10 µM (786-0): 24%
growth at 10 µM (OVCAR-5): 59%
growth at 10 µM (RPMI-8226): 10%
growth at 1 µM (BT-549): 53%
growth at 1 µM [6]: 52%
growth at 1 µM (ACHN): 44%
growth at 1 µM (SK-OV-3): 51%
growth at 1 µM (OVCAR-8): 50%
growth at 1 µM (KM12 [7]): 36%
growth at 1 µM (HL-60(TB)): 27%
growth at 0.1 µM (MDA-MB-468): 89%
growth at 1 µM (CCRF-CEM [8]): 27%
growth at 0.1 µM (T47D): 92%
growth at 0.1 µM (DU-145): 100%
growth at 0.1 µM [9]: 92%

COc1cc(-c2nn(-c3cccc(NC(=O)c4ccc(N5CCOCC5)c(C(F)(F)F)c4)c3)cc2-c2ccncc2)ccc1Cl
growth at 0.1 µM (SNB-19): 81%
growth at 0.1 µM (SW-620): 58%
growth at 0.1 µM [1]: 92%
growth at 0.1 µM (MOLT-4): 105%
growth at 100 µM [2]: 14%
growth at 100 µM (MDA-MB-231): -30%
growth at 100 µM (SK-MEL-5): -85%
growth at 100 µM (M14): -30%
growth at 100 µM (U-251): -59%
growth at 100 µM (SF-539): -40%
growth at 100 µM (SF-268): 10%
growth at 100 µM (HCT-116): 2%
growth at 100 µM (NCI-H522): -23%
growth at 0.01 µM (UO-31): 91%
growth at 0.01 µM [3]: 102%
growth at 0.01 µM (SNB-75): 89%
growth at 0.01 µM (KM12 [4]): 108%
growth at 0.01 µM (HT-29): 98%
growth at 0.01 µM (HOP-92): 70%
growth at 0.01 µM (K562): 99%
growth at 100 µM (CCRF-CEM [5]): 8%
growth at 10 µM (786-0): -14%
growth at 10 µM (OVCAR-5): 16%
growth at 10 µM (RPMI-8226): 6%
growth at 1 µM (BT-549): 54%
growth at 1 µM [6]: 6%
growth at 1 µM (ACHN): 39%
growth at 1 µM (SK-OV-3): 24%
growth at 1 µM (OVCAR-8): 30%
growth at 1 µM (KM12 [7]): 28%
growth at 1 µM (HL-60(TB)): 24%
growth at 0.1 µM (MDA-MB-468): 71%
growth at 1 µM (CCRF-CEM [8]): 12%
growth at 0.1 µM (T47D): 93%
growth at 0.1 µM (DU-145): 98%
growth at 0.1 µM [9]: 72%
